The numbers were not newly measured in US8323685B2, “Methods of processing compositions containing microparticles” (Baxter International Inc., priority 2008, dated 2012), which cites them from elsewhere.

One series deals with rats. The following applies: oral, all at once (acute toxicity), minimal amount reported in the literature.
Turning to `CCC(C)=O` [2-butanone (MEK), 2-butanone], the LD50 was 2.7 g/kg body weight.
In the case of `CC(C)=O` [Acetone], the LD50 is listed as 5.8 g/kg body weight.
As to `COCCOC` [dimethoxyethane], the LD50 was 10 g/kg body weight.
Regarding `CCOCC` [ether], the LD50 was 1.2 g/kg body weight.

Tested on in a further series: not given
The following applies: ambient temperature such as 20-25° C.
Consider `CC(C)OC(C)C` [diisopropyl ether], for which the “Solubility (Sol) of water in the liquid” value was 0.2 g/100 g.
Consider `CCOCC` [ether], for which the “Solubility (Sol) of water in the liquid” value was 7.5 g/100 g.
